In patent US20220024921A1, “1,3,4-OXADIAZOLONE COMPOUND AND PHARMACEUTICAL” (NIPPON SHINYAKU CO., LTD., priority 2018, published 2022) one finds IC50 data, which are given here for 1 molecule.

As a reminder, the IC50 is the concentration that inhibits the measured activity by half. Low readings indicate inhibition by little substance, high ones a need for much substance.

The target in the test is T1, PIM3 serine/threonine kinase (Homo sapiens, UniProt Q86V86).
T1 construct: purchased Carna Bioscience, Inc
Description: PIM3 serine/threonine kinase inhibitory effect. The following applies: PIM3 serine/threonine kinase activity; ATP 10 μM; 30° C., 30 minutes. It counts as biochemical.

With `C[C@H](Nc1cc(-c2n[nH]c(=O)o2)cc(F)c1C(F)(F)F)C1CCNCC1.Cl` [Example 75, 5-[3-fluoro-5-{[(1S)-1-(piperidin-4-yl)ethyl]amino}-4-(trifluoromethyl)phenyl]-1,3,4-oxadiazol-2(3H)-one hydrochloride], the IC50 amounted to 10 nM.
